# Measurements: patent US20170080040A1, “DECOCTION OF OLIVE LEAVES” (priority 2014, published 2017)
# Key:
# mice CD-1 males = test: Stimulating activity: effect on loss of straightening reflex (sleep) induced by ethanol in mice; assay type: in vivo; details: caffeine 60 mg/kg
# Text: The antioxidant and anti-radical activity was studied on decoctions 1 and 2, respectively, by testing the decolorization of the radical cation ABTS^• (2.2′-azino-bis-3-ethylbenzothiazoline-6-sulphonic acid) (Re et al.—Free Rad. Biol. Med. 26: 1231, 1999) and by testing the neutralization of the radical 1,1-diphenyl-2-picrylhydrazyl (DPPH^•) (Brand-Williams et al.—Food Sci. Technol. 28: 25, 1995). Finally, decoctions 1 and 2 were studied for potential stimulating activity, verifying the effect on sleep induced by ethanol in mice according to the method reported by Yacoubi et al. (Yacoubi et al. —Neuropharmacology 45: 977, 2003).
# The stimulating activity of the decoctions of olive leaves was evaluated on the basis of the reduction of the hypnotic effect induced by ethanol in the mice (Yacoubi et al.—Neuropharmacology 45: 977, 2003). The animals were housed in groups of 5 and kept for at least a week in the same place where the test was carried out, at a constant temperature (23±1° C.) and relative humidity (50-60%), with a fixed artificial light cycle (07.00-19.00). The experiment was carried out in conformity with the laws in force that regulate the use of animals for scientific purposes (Italian Legislative Decree 116 of 27 Jan. 1992 and the Directives of the European Communities Council of 24 Nov. 1986/86/609/EEC).
# At the moment of the experiment, each animal was positioned individually in a cage. The lyophilized decoctions, dissolved in water, were administered to the mice (dose: 120 mg/kg; volume of solution administered: 10 ml/kg) by means of gastric intubation, 30 minutes before the inter-peritoneal injection of an aqueous composition of ethanol at 20% (v/v; 4 g/kg). The control animals were administered 10 ml/kg of physiological solution. The induction of ethanol induced sedation in the animals, with the loss of the straightening reflex. In every animal both the duration of the latency phase that elapsed between the injection of the ethanol and the loss of the straightening reflex, and the duration of the loss of the straightening reflex were measured. The stimulating activity was evaluated on the basis of both the increase in the latency phase and also on the reduction in the duration of the loss of the straightening reflex. The effect was compared to that of caffeine, at a dose of 60 mg/kg. Each treatment group consisted of 10 animals.
# The values of IC50 were calculated on the basis of the linear regression of the straight lines that put the logarithm of the concentrations tested in relation to the reduction of the absorbance measured, using the appropriate function of an electronic spreadsheet. The in vivo data were analyzed according to the Student's t-test, accepting as significant the values of p<0.05.
# The stimulating activity of decoctions 1 and 2 was evaluated in the mice, after oral administration of 120 mg/kg of lyophilized decoction (corresponding to 9.6 and 11.9) ml of decoction 1 and 2 liquid/kg), verifying the effect on the loss of straightening induced by the intraperitoneal injection of ethanol (4 g/kg). The parameters evaluated were the increase in the latency phase between the ethanol injection and the loss of the straightening reflex, and the duration of the loss of the straightening reflex (interval between the loss and the re-acquisition of the straightening reflex). As a reference compound, caffeine was used at a dose of 60 mg/kg (corresponding to an average dose of coffee equal to about 40 ml/kg).
# [1] = Antioxidant activity: decoloring test of the cationic radical ABTS•+; details: mg lyophilized preparation per ml; absorbance at 734 nm; four determinations
# Protocol: Biol. Med. 26: 1231, 1999) and by testing the neutralization of the radical 1,1-diphenyl-2-picrylhydrazyl (DPPH^•) (Brand-Williams et al.—Food Sci. Technol. 28: 25, 1995). […] (Yacoubi et al. —Neuropharmacology 45: 977, 2003). The antioxidant activity was evaluated according to the method reported by Re and collaborators (Re et al.—Free Rad. Biol. Med. 26: 1231, 1999). […] In the presence of an antioxidant the ABTS^•+ is reduced to colorless ABTS, determining a decoloring of the solution in which it is dissolved, which can be measured by spectrophotometry quantifying the absorbance at 734 nm. […] The antioxidant activity, expressed as IC50, was compared to that of Trolox, a similar water-soluble to vitamin E, and to that of an infusion of green tea, prepared with 10 g of leaves in 1 liter of water (from which 4.385 g of lyophilized infusion were obtained). For every sample four determinations were carried out and the result was expressed as average±standard deviation of the analyses done. The values of IC50 were calculated on the basis of the linear regression of the straight lines that put the logarithm of the concentrations tested in relation to the reduction of the absorbance measured, using the appropriate function of an electronic spreadsheet. The in vivo data were analyzed according to the Student's t-test, accepting as significant the values of p<0.05. […]
# [2] = mice, oral 30 min before ethanol 4 g/kg i.p., decoctions 120 mg/kg lyophilized, n = 10
# [3] = mice, oral, decoctions 120 mg/kg, ethanol 4 g/kg i.p.
SMILES,"reduction in the duration of the loss of the straightening reflex (mice CD-1 males; given as positive reduction, decoctions 120 mg/kg) [%]",Duration Average ± E.S. (of the loss of the straightening reflex) (mice CD-1 males; [2]) [min],Latency Average ± E.S. (between ethanol injection and loss of the straightening reflex) (mice CD-1 males; [2]) [s],Duration Difference (%) with respect to the controls (mice CD-1 males; [3]) [%],Latency Difference (%) with respect to the controls (increase in the latency period) (mice CD-1 males; [3]) [%],"Lyophilized Decoction IC50 Average ± D.S. (antioxidant activity, ABTS) [1] [µg/mL]"
"Cn1c(=O)c2c(ncn2C)n(C)c1=O [Caffeine, caffeine]",43,23.5 ± 3.3,215.7 ± 18.2,−43,48,–
Cc1c(C)c2c(c(C)c1O)CCC(C)(C(=O)O)O2 (stereo not drawn) [Trolox],–,–,–,–,–,30
